Experimental data taken from US11926619B2, “Certain pladienolide compounds and methods of use” (EISAI R&D MANAGEMENT CO., LTD., priority 2018, dated 2024).

How the values were obtained:
Type in all cases: cell-based
[1] = test system: Panc 05.04 cells (pancreatic cancer cells; Q699H and K700E mutations in SF3B1); test: Cell viability assay (CellTiter-Glo, 72 hr), Panc 05.04 cells; conditions: Panc 05.04 cells (mutant SF3B1); for Emax: maximum achievable response in tested dose range, negative value = cellular lethality, read-out: Panc 05.04 (mt SF3B1 cells) Emax (%); for GI50: read-out: Panc 05.04 (mt SF3B1 cells), GI50
Description: (§1) Cells (WiDr and Panc05.04 obtained from ATCC) were seeded in 96-well plates, with 2000 cells/100 μL/well, and incubated overnight. Spent media was removed, and fresh media containing 9 different concentrations of compound (100 μL/well) were added, with DMSO concentration from compound stock solution adjusted to be 0.1%. Each compound treatment was done in duplicate or triplicate at each concentration.
(§2) Another plate with cells seeded was dedicated as a time zero (Tz) plate, to which was added 0.1% DMSO in media (100 μL/well) followed by CellTiter-Glo® reagent (Promega Corporation, Madison, Wisconsin) (50 μL/well) for ATP measurement as a surrogate of cell viability. Average value from measurement of multiple wells of this plate is used as Tz. Compound-treated plates were incubated for 72 hr at 37° C. Then, CellTiter-Glo® reagent (50 μL/well) was added and ATP was measured. Average value from measurement of the duplicate or triplicate compound-treated wells is used as Ti, and seeded plates with medium having 0.1% DMSO without compound is used as control growth (C).
(§3) Percentage growth inhibition/Percentage viability was calculated as:
(§4) [(Ti−Tz)/(C−Tz)]×100 for concentrations for which Ti>/=Tz
(§5) [(Ti−Tz)/Tz]×100 for concentrations for which Ti<Tz.
(§6) *time zero (Tz), control growth (C), and test growth in the presence of compound (Ti) Percentage growth inhibition/Percentage viability are plotted versus compound concentration to determine Emax.
(§7) Emax refers to the maximum achievable response to a compound in a tested dose range, with a negative value indicating cellular lethality. A larger negative Emax value indicates greater cellular lethality for a particular compound.

[2] = test system: WiDr-R cells (colon cancer cells; chemically-induced SF3B1 R1074H mutant); test: Cell viability assay (CellTiter-Glo, 72 hr), resistant WiDr-R cells (counter-screen); conditions: WiDr-R cells (SF3B1 R1074H mutation, resistant); read-out: WiDr-R GI50
Description: as §1, §2, §3, §4, §5, §6, §7
The counter-screening of compounds in this viability assay with a “resistant” WiDr-R cell line may indicate whether these compounds have off-target effect(s).

[3] = test system: WiDr cells (colon cancer cells; wildtype SF3B1); test: Cell viability assay (CellTiter-Glo, 72 hr), WiDr cells; conditions: Homo sapiens; WiDr cells (wildtype SF3B1); read-out: WiDr GI50
Description: as §1, §2, §3, §4, §5, §6
Emax refers to the maximum achievable response to a compound in a tested dose range, with a negative value indicating cellular lethality. A larger negative Emax value indicates greater cellular lethality for a particular compound. […]

Compound | Emax [1] [%] | GI50 [1] [µM] | GI50 [2] [µM] | GI50 [3] [µM]
C/C(=C\C=C\[C@@H](C)COC(=O)N1CCC[C@H]1CF)[C@H]1OC(=O)C[C@H](O)CC[C@H](C)[C@@H](OC(=O)N2CCN(C3CCCCCC3)CC2)/C=C/[C@@H]1C | -77.7 | 0.00676 | > 1 | 0.00505
C/C(=C\C=C\C(C)c1ccnc(N(C)C)n1)[C@H]1OC(=O)C[C@H](O)CC[C@@](C)(O)[C@@H](OC(=O)N2CCN(C)CC2)/C=C/[C@@H]1C (some centres unmarked) | 6.97 | 1.29 | > 1 | 0.252
C/C(=C\C=C\[C@@H](C)COC(=O)N1CCCC1)[C@H]1OC(=O)CCCCC[C@@H](OC(=O)N2CCN(C3CCCCCC3)CC2)/C=C/[C@@H]1C | -93.3 | 0.17 | 0.929 | 0.0746
CC(=O)O[C@H]1/C=C/[C@H](C)[C@@H](/C(C)=C/C=C/Cc2cccnc2)OC(=O)C[C@H](O)CC[C@@]1(C)O | 84.5 | > 6.4 | > 10 | 0.538
C/C(=C\C=C\[C@@H](C)COC(=O)N1CC[C@@H](Oc2nnnn2-c2ccccc2)C1)[C@H]1OC(=O)CCCC[C@@](C)(O)[C@@H](OC(=O)N2CCN(C)CC2)/C=C/[C@@H]1C | -94.9 | 0.0373 | > 1 | 0.0316
C/C(=C\C=C\[C@@H](C)COC(=O)N1CCc2ccccc21)[C@H]1OC(=O)C[C@H](O)CC[C@@](C)(O)[C@@H](OC(=O)N2CCN(C)CC2)/C=C/[C@@H]1C | -97 | 0.0167 | > 1 | 0.0198
C/C(=C\C=C\[C@@H](C)COC(=O)N1CCCC1C(C)O)[C@H]1OC(=O)C[C@H](O)CC[C@@](C)(O)[C@@H](OC(=O)N2CCN(C)CC2)/C=C/[C@@H]1C (some centres unmarked) | -85.4 | 0.0101 | > 1 | 0.0147
C/C(=C\C=C\[C@@H](C)CO)[C@H]1OC(=O)C[C@H](O)CC[C@@](C)(O)[C@@H](OC(=O)N2CCN(C)CC2)/C=C/[C@@H]1C | 35.1 | 1.39 | > 10 | 1.15
CC(=O)O[C@H]1/C=C/[C@H](C)[C@@H](/C(C)=C/C=C/[C@@H](C)COC(N)=O)OC(=O)C[C@H](O)CC[C@@]1(C)O | 40.1 | 2.09 | > 10 | 8.13
CC(=O)O[C@H]1/C=C/[C@H](C)[C@@H](/C(C)=C/C=C/C(C)(O)CCc2ccccc2)OC(=O)C[C@H](O)CC[C@@]1(C)O (some centres unmarked) | -41.5 | 0.354 | > 10 | 0.194
C/C(=C\C=C\C(C)(C)COC(=O)N1CCCC1)[C@H]1OC(=O)C[C@H](OC(=O)N2CCCC2)CC[C@@](C)(O)[C@@H](OC(=O)N2CCN(C3CCCCCC3)CC2)/C=C/[C@@H]1C | -92.4 | 0.0863 | 1.88 | 0.0414
C/C(=C\C=C\[C@@H](C)COC(=O)n1ccc2ccccc21)[C@H]1OC(=O)C[C@H](O)CC[C@@](C)(O)[C@@H](OC(=O)N2CCN(C)CC2)/C=C/[C@@H]1C | -92.8 | 0.0305 | > 1 | 0.0366
CCCCN(C)C(=O)OC[C@H](C)/C=C/C=C(\C)[C@H]1OC(=O)C[C@H](O)CC[C@@](C)(O)[C@@H](OC(C)=O)/C=C/[C@@H]1C |  | 0.198 | > 10 | 0.0865
C/C(=C\C=C\[C@@H](C)COC(=O)N1CCC[C@H]1C(N)=O)[C@H]1OC(=O)C[C@H](O)CC[C@@](C)(O)[C@@H](OC(=O)N2CCN(C3CCCCCC3)CC2)/C=C/[C@@H]1C | -92.9 | 0.0402 | > 1 | 0.0328
COc1cccc(C(C)/C=C/C=C(\C)[C@H]2OC(=O)C[C@H](O)CC[C@@](C)(O)[C@@H](OC(C)=O)/C=C/[C@@H]2C)n1 (some centres unmarked) | -12.7 | 0.554 | > 10 | 0.282
CC(=O)O[C@H]1/C=C/[C@H](C)[C@@H](/C(C)=C/C=C/[C@@H](C)c2ccccn2)OC(=O)CCCCC1 |  | > 10 | > 10 | > 10
CC(=O)O[C@H]1/C=C/[C@H](C)[C@@H](/C(C)=C/C=C/C(C)c2cccc(OCC(C)C)n2)OC(=O)C[C@H](O)CC[C@@]1(C)O (some centres unmarked) | -27.1 | 0.842 | > 10 | 0.44

Compound | Emax [1] [%] | GI50 [1] [µM] | GI50 [2] [µM] | GI50 [3] [µM]
CC(=O)O[C@H]1/C=C/[C@H](C)[C@@H](/C(C)=C/C=C/C(C)(O)c2cccs2)OC(=O)C[C@H](O)CC[C@@]1(C)O (some centres unmarked) | 32.8 | 3.79 | > 10 | 0.473
C/C(=C\C=C\[C@@H](C)COC(=O)N1CCC2(COC2)C1)[C@H]1OC(=O)C[C@H](O)CC[C@@](C)(O)[C@@H](OC(=O)N2CCN(C3CCCCCC3)CC2)/C=C/[C@@H]1C | -76.4 | 0.00798 | 0.603 | 0.00639
CC(=O)O[C@H]1/C=C/[C@H](C)[C@@H](/C(C)=C/C=C/[C@](C)(O)CCc2ccccc2)OC(=O)C[C@H](O)CC[C@@]1(C)O | -55.4 | 0.314 | > 10 | 0.167
C/C(=C\C=C\[C@@H](C)COC(=O)N1CCC[C@H]1CF)[C@H]1OC(=O)C[C@H](O)CC[C@H](C)[C@@H](OC(=O)N2CCN(C)CC2)/C=C/[C@@H]1C | -79.1 | 0.000339 | > 1 | 0.0022
C/C(=C\C=C\[C@@H](C)CNC(=O)C1CCCC1)[C@H]1OC(=O)C[C@H](O)CC[C@@](C)(O)[C@@H](OC(=O)N2CCN(C)CC2)/C=C/[C@@H]1C | -57 | 0.137 | > 1 | 0.263
C/C(=C\C=C\[C@@H](C)COC(=O)N1CCCC1)[C@H]1OC(=O)C[C@H](OC(=O)N2CCCC2)CC[C@@](C)(O)[C@@H](OC(=O)N2CCN(C3CCCCCC3)CC2)/C=C/[C@@H]1C |  | 0.0801 | > 1 | 0.0773
C/C(=C\C=C\[C@@H](C)COC(=O)N1CCC[C@H]1C)[C@H]1OC(=O)CCCCC[C@@H](OC(=O)N2CCN(C)CC2)/C=C/[C@@H]1C | -65.3 | 0.00773 | 0.681 | 0.00344
C/C(=C\C=C\[C@@H](C)COC(=O)N1CC[C@@H](NC(=O)OC(C)(C)C)C1)[C@H]1OC(=O)C[C@H](O)CC[C@@](C)(O)[C@@H](OC(=O)N2CCN(C3CCCCCC3)CC2)/C=C/[C@@H]1C | -59.6 | 0.0594 | > 1 | 0.028
C/C(=C\C=C\[C@@H](C)COC(=O)N1CCC[C@H]1CF)[C@H]1OC(=O)C[C@H](O)CC[C@@](C)(O)[C@@H](OC(=O)N2CCN(C)CC2)/C=C/[C@@H]1C | -82.1 | 0.00225 | > 1 | 0.0017
C/C(=C\C=C\C(C)c1ncccn1)[C@H]1OC(=O)CCCCC[C@@H](OC(=O)N2CCN(C)CC2)/C=C/[C@@H]1C (some centres unmarked) | -72.6 | 0.0404 | > 1 | 0.0457
C/C(=C\C=C\[C@@H](C)COC(=O)N1CCCC1(C)C)[C@H]1OC(=O)C[C@H](O)CC[C@@](C)(O)[C@@H](OC(=O)N2CCN(C3CCCCCC3)CC2)/C=C/[C@@H]1C | -93 | 0.0104 | > 1 | 0.0289
C/C(=C\C=C\C(C)c1ccnc(N(C)C)n1)[C@H]1OC(=O)CCCCC[C@@H](OC(=O)N2CCN(C3CCCCCC3)CC2)/C=C/[C@@H]1C (some centres unmarked) | 52 | > 10 | > 10 | 4.28
CC(=O)O[C@H]1/C=C/[C@H](C)[C@@H](/C(C)=C/C=C/[C@@H](C)COC(=O)N2CCOCC2)OC(=O)C[C@H](O)CC[C@@]1(C)O |  | 0.0155 | > 10 | 0.0913
C/C(=C\C=C\[C@@H](C)COC(=O)N1CCC[C@H]1CO)[C@H]1OC(=O)C[C@H](O)CC[C@H](C)[C@@H](OC(=O)N2CCN(C)CC2)/C=C/[C@@H]1C | -79 | 0.00436 | > 1 | 0.00266
C/C(=C\C=C\[C@@H](C)COC(=O)N1CC[C@@H](O)C1)[C@H]1OC(=O)C[C@H](O)CC[C@@](C)(O)[C@@H](OC(=O)N2CCN(C)CC2)/C=C/[C@@H]1C | -94.8 | 0.0881 | > 1 | 0.0899
C/C(=C\C=C\[C@@H](C)COC(=O)N1C[C@H](O)[C@@H](O)C1)[C@H]1OC(=O)C[C@H](O)CC[C@@](C)(O)[C@@H](OC(=O)N2CCN(C3CCCCCC3)CC2)/C=C/[C@@H]1C | -95.4 | 0.0746 | > 1 | 0.294
